Test results published in patent US20260297042A1, “BIARYLAMIDE DERIVATIVES AND THEIR USE AS PKMYT1 INHIBITORS” (CANCER RESEARCH TECHNOLOGY LIMITED, priority 2023, published 2026).

What was measured:
Human PKMYT1 = target: T1, Human PKMYT1 (Homo sapiens, UniProt Q99640); experiment: PKMYT1 biochemical ADP-Glo enzymatic assay; conditions: PKMYT1 kinase domain 15 nM; ADP-Glo; banded values
T1 construct: Human PKMYT1 75-362 was cloned as a TEV cleavable 6xHis fusion; 6xHis (TEV cleavable) (cleaved yes); made in house; host or cells: bacterial cells
T1 sequence (Q99640 75-362): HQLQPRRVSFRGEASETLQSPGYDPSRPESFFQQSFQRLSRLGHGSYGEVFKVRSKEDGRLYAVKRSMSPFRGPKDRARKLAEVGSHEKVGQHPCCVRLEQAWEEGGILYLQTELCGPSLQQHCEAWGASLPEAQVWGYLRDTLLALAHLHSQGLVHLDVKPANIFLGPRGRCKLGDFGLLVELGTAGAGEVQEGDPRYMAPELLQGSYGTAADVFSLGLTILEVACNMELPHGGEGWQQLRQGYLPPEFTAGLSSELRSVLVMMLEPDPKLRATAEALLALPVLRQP
Summary of the method: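 Purified untagged human PKMYT1 75-362 at 15 nM final was tested in HEPES pH 7.5 with MgCl2, EGTA, Brij-35 and 1% DMSO. Intrinsic ATPase activity was measured with 500 uM ATP over 60 min at 26° C. ADP-Glo luminescence was read and IC50 fitted from 10-point, 3-fold dilution curves.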

WEE1 = target: T2, WEE1 (Homo sapiens, UniProt P30291); experiment: Selectivity versus WEE1 assay (ADP-Glo enzymatic assay); format: biochemical; conditions: for IC50: WEE1 15 nM, ADP-Glo, banded values; for PKMYT1 vs. WEE1 selectivity: fold difference in selectivity for PKMYT1 over WEE1, banded
T2 construct: purchased Thermo Fisher PR7373A
T2 sequence (P30291 whole entry): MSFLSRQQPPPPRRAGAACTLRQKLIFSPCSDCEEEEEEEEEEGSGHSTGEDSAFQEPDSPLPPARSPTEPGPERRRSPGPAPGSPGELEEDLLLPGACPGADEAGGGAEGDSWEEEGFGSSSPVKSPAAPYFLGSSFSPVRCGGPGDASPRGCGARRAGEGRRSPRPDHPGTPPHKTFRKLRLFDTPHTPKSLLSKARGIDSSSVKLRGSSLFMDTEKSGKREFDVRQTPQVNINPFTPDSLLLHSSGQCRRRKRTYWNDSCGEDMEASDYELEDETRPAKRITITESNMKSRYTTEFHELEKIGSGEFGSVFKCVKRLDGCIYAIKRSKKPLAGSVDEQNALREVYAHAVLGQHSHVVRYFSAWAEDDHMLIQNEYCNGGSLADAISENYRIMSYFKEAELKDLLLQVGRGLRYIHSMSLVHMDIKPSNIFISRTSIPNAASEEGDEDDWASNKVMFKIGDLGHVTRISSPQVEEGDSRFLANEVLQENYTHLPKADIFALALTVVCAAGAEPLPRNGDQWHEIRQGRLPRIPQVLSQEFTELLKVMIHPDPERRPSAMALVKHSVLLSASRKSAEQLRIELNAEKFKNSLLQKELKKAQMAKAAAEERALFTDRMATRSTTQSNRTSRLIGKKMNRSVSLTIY
Summary of the method: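 WEE1 at 15 nM final in 50 mM HEPES pH 7.5, 10 mM MgCl2, 1 mM EGTA, 0.01% Brij-35, 1% DMSO; reaction started with 30 µM ATP, 60 min at 26 °C. ADP-Glo luminescence; IC50 from dose-response curves, replicates within 3-fold and r2 >0.9.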

OVCAR 3 cells = experiment: Cancer cell line proliferation assay, ATP-based cell viability (Cell Titre Glow), OVCAR 3 (CCNE1-amplified); conditions: KYSE30 (normal CCNE1) GI50 vs. OVCAR 3 (CCNE1-amplified) GI50
Description: (§1) Cancer cell lines with either normal (KYSE-30) or amplified CCNE1 expression (OVCAR 3 —ovarian cancer) were evaluated for their sensitivity to PKMYT1 inhibitors using Cell Titre Glow assay (Promega G7573) as endpoint to assess cell proliferation. The luminescence signal was read on a PHERAStar FS microplate reader (BMG Labtech). Data analysis was performed using Microsoft Excel® and Gl50 (concentration that achieves 50% cell growth proliferation inhibition) estimates generated with GraphPad Prism v9.

KYSE-30 cells = experiment: Cancer cell line proliferation assay, ATP-based cell viability (Cell Titre Glow), KYSE-30 (normal CCNE1); conditions: Homo sapiens, KYSE-30 cells (normal CCNE1), concentration that achieves 50% cell growth proliferation inhibition, read-out: KYSE30 Gl50
Description: as §1

IC50 (Human PKMYT1) [nM]	IC50 (WEE1) [nM]	PKMYT1 vs. WEE1 selectivity (WEE1)	SMILES	Selectivity ratio KYSE30 Gl50 vs. OVCAR3 Gl50 (OVCAR 3 cells)	GI50 (KYSE-30 cells) [nM]
< 50	> 11000	X (100-<1000 fold)	COCCN(CCOC)C(=O)Cn1cc(C)c(Nc2ncc(C(=O)Nc3c(C)ccc(O)c3C)s2)n1 [BAA-542, 2-((1-(2-(bis(2-methoxyethyl)amino)-2-oxoethyl)-4-methyl-1H-pyrazol-3-yl)amino)-N-(3-hydroxy-2,6-dimethyl-phenyl)thiazole-5-carboxamide]		
50 to 1000	1000 to 11000	W (10-<100 fold)	Cc1ccc(O)c(C)c1NC(=O)c1cnc(Nc2cc(C(=O)N3CCCC3)n(C)n2)s1 [BAA-544, N-(3-hydroxy-2,6-dimethylphenyl)-2-((1-methyl-5-(pyrrolidine-1-carbonyl)-1H-pyrazol-3-yl)amino)thiazole-5-carboxamide]		
50 to 1000	1000 to 11000	W (10-<100 fold)	CCN(CC)C(=O)c1cc(Nc2ncc(C(=O)Nc3c(C)ccc(O)c3C)s2)nn1C [BAA-545, 2-((5-(diethylcarbamoyl)-1-methyl-1H-pyrazol-3-yl)amino)-N-(3-hydroxy-2,6-dimethylphenyl)thiazole-5-carboxamide]		
50 to 1000	> 11000	X (100-<1000 fold)	Cc1ccc(O)c(C)c1NC(=O)c1cnc(Nc2cn(C)nc2C(F)(F)F)s1 [BAA-548, N-(3-hydroxy-2,6-dimethylphenyl)-2-((1-methyl-3-(trifluoromethyl)-1H-pyrazol-4-yl)amino)thiazole-5-carboxamide]		
50 to 1000	> 11000	X (100-<1000 fold)	Cc1ccc(O)c(C)c1NC(=O)c1cnc(Nc2nccn2C)s1 [BAA-552, N-(3-hydroxy-2,6-dimethylphenyl)-2-((1-methyl-1H-imidazol-2-yl)amino)thiazole-5-carboxamide]		
< 50	1000 to 11000	Y (1000-5000 fold)	CCN(CCS(C)(=O)=O)C(=O)Cn1cc(C)c(Nc2ncc(C(=O)Nc3c(C)ccc(O)c3C)s2)n1 [BAA-555, 2-((1-(2-(ethyl(2-(methylsulfonyl)ethyl)amino)-2-oxoethyl)-4-methyl-1H-pyrazol-3-yl)amino)-N-(3-hydroxy-2,6-dimethylphenyl)thiazole-5-carboxamide]		
50 to 1000	> 11000	X (100-<1000 fold)	Cc1ccc(O)c(C)c1NC(=O)c1cnc(Nc2cnn(CC(=O)N3CCCC3)c2C)s1 [BAA-556, N-(3-hydroxy-2,6-dimethylphenyl)-2-((5-methyl-1-(2-oxo-2-(pyrrolidin-1-yl)ethyl)-1H-pyrazol-4-yl)amino)thiazole-5-carboxamide]		
1000 to 11000			Cc1c(O)cc(Br)c(C)c1NC(=O)c1cnc(Nc2nn(C3CCS(=O)(=O)C3)c(C)c2Br)s1 (stereo not drawn) [BAA-557, 2-((4-Bromo-1-(1,1-dioxidotetrahydrothiophen-3-yl)-5-methyl-1H-pyrazol-3-yl)amino)-N-(3-bromo-5-hydroxy-2.6-dimethylphenyl)thiazole-5-carboxamide]	Y (>20 fold)	> 5000
50 to 1000	> 11000	Y (1000-5000 fold)	Cc1ccc(O)c(C)c1NC(=O)c1cnc(Nc2cn(CC(=O)N3CCCC3)nc2C)s1 [BAA-558, N-(3-hydroxy-2,6-dimethylphenyl)-2-((3-methyl-1-(2-oxo-2-(pyrrolidin-1-yl)ethyl)-1H-pyrazol-4-yl)amino)thiazole-5-carboxamide]		
< 50	1000 to 11000	X (100-<1000 fold)	COc1cncnc1Nc1ncc(C(=O)Nc2c(C)ccc(O)c2C)s1 [BAA-559, N-(3-hydroxy-2,6-dimethylphenyl)-2-((5-methoxypyrimidin-4-yl)amino)thiazole-5-carboxamide]		
< 50	> 11000	Y (1000-5000 fold)	COc1c(Cl)ncnc1Nc1ncc(C(=O)Nc2c(C)ccc(O)c2C)s1 [BAA-562, 2-((6-chloro-5-methoxypyrimidin-4-yl)amino)-N-(3-hydroxy-2,6-dimethylphenyl)thiazole-5-carboxamide]		
50 to 1000	1000 to 11000	W (10-<100 fold)	Cc1c(O)cc(Br)c(C)c1NC(=O)c1cnc(Nc2cc(C)n(C3CCS(=O)(=O)C3)n2)s1 (stereo not drawn) [BAA-563, N-(3-Bromo-5-hydroxy-2,6-dimethyl-phenyl)-2-[[1-(1,1-dioxothiolan-3-yl)-5-methyl-pyrazol-3-yl]amino]thiazole-5-carboxamide]		
50 to 1000	1000 to 11000	W (10-<100 fold)	Cc1ccc(O)c(C)c1NC(=O)c1cnc(Nc2cc(C)n(C3CCS(=O)(=O)C3)n2)s1 (stereo not drawn) [BAA-564, 2-[[1-(1,1-Dioxothiolan-3-yl)-5-methyl-pyrazol-3-yl]amino]-N-(3-hydroxy-2,6-dimethyl-phenyl)thiazole-5-carboxamide]		
< 50	> 11000	Y (1000-5000 fold)	Cc1ccnc(Nc2ncc(C(=O)Nc3c(C)ccc(O)c3C)s2)n1 [BAA-567, N-(3-hydroxy-2,6-dimethylphenyl)-2-((4-methylpyrimidin-2-yl)amino)thiazole-5-carboxamide]		
< 50	> 11000	X (100-<1000 fold)	COc1cnc(Cl)nc1Nc1ncc(C(=O)Nc2c(C)ccc(O)c2C)s1 [BAA-568, 2-((2-chloro-5-methoxypyrimidin-4-yl)amino)-N-(3-hydroxy-2,6-dimethylphenyl)thiazole-5-carboxamide]		
< 50	> 11000	X (100-<1000 fold)	Cc1cncc(Nc2ncc(C(=O)Nc3c(C)ccc(O)c3C)s2)n1 [BAA-570, N-(3-hydroxy-2,6-dimethylphenyl)-2-((6-methylpyrazin-2-yl)amino)thiazole-5-carboxamide]		
< 50	> 11000	Y (1000-5000 fold)	CCn1cc(C#N)c(Nc2ncc(C(=O)Nc3c(C)ccc(O)c3C)s2)n1 [BAA-573, 2-((4-cyano-1-ethyl-1H-pyrazol-3-yl)amino)-N-(3-hydroxy-2,6-dimethylphenyl)thiazole-5-carboxamide]		
< 50	50 to 1000	W (10-<100 fold)	Cc1ccc(O)c(C)c1NC(=O)c1cnc(Nc2cc(N3CCNCC3)ncn2)s1 [BAA-575, N-(3-Hydroxy-2,6-dimethylphenyl)-2-((6-(piperazin-1-yl)pyrimidin-4-yl)amino)thiazole-5-carboxamide]		
< 50	1000 to 11000	X (100-<1000 fold)	Cc1ccc(O)c(C)c1NC(=O)c1cnc(Nc2n[nH]cc2Br)s1 [BAA-579, 2-((4-Bromo-1H-pyrazol-3-yl)amino)-N-(3-hydroxy-2,6-dimethylphenyl)thiazole-5-carboxamide]		
50 to 1000	> 11000	X (100-<1000 fold)	Cc1ccc(O)c(C)c1NC(=O)c1cnc(Nc2nccc3ccncc23)s1 [BAA-602, 2-((2,7-naphthyridin-1-yl)amino)-N-(3-hydroxy-2,6-dimethylphenyl)thiazole-5-carboxamide]		
50 to 1000	> 11000	X (100-<1000 fold)	Cc1ccc(O)c(C)c1NC(=O)c1cnc(Nc2nccc3ncccc23)s1 [BAA-603, 2-((1,6-naphthyridin-5-yl)amino)-N-(3-hydroxy-2,6-dimethylphenyl)thiazole-5-carboxamide]		
50 to 1000	> 11000	X (100-<1000 fold)	CCN(CC)C(=O)Cn1cc(C)c(Nc2ncc(C(=O)Nc3c(C)cc(Br)c(O)c3C)s2)n1 [BAA-608, N-(4-bromo-3-hydroxy-2,6-dimethylphenyl)-2-((1-(2-(diethylamino)-2-oxoethyl)-4-methyl-1H-pyrazol-3-yl)amino)thiazole-5-carboxamide]		
